Measured values: patent US9163256B2, “Mutant receptors and their use in a nuclear receptor-based inducible gene expression system” (priority 2004, dated 2015)
pEC50: −log10 of the molar value. Read-outs that look alike come from different tables or passages of the source.

How the values were obtained:
[1] = tested on: CfEcR-DEF mutant N119F; experiment: GAL4-driven luciferase reporter assay in NIH3T3 cells; format: cell-based, Choristoneura fumiferana
Protocol: (§1) This construct was prepared in the same way as in switch 1.1 above except wild-type CfEcR-DEF was replaced with mutant CfEcR-DEF comprising a ligand binding domain comprising a substitution mutation selected from Table 1 below.
(§2) DNAs were transfected into mouse NIH3T3 cells (ATCC) as follows. Standard methods for culture and maintenance of the cells were followed. Cells were harvested and plated 96-well plates at 2,500 cells per well, in 50 μL of growth medium containing 10% fetal bovine serum (FBS). Twenty-four hours later, the cells were treated with 35 μL of serum-free growth medium containing either dimethylsulfoxide (DMSO; control) or a DMSO solution of ligand. The cells were then transfected using Superfect (Qiagen Inc.) transfection reagent. For each well, 0.625 μL of Superfect was mixed with 14.2 μL of serum-free growth medium. 0.16 μg of reporter construct and 0.04 μg of each receptor construct were added to the transfection reagent mix. The contents of the transfection mix were mixed in a vortex mixer and let stand at room temperature for 30 minutes. At the end of incubation, 15 μL of transfection mix was added to the cells. The cells were maintained at 37° C. and 5% CO2 for 48 hours in 5% FBS.
(§3) Reporter Assays: Cells were harvested 40 hours after adding ligands. 125 μL of passive lysis buffer (part of Dual-Luciferase reporter assay system from Promega Corporation) were added to each well of the […] plate. The plates were placed on a rotary shaker for 15 minutes. Twenty μL of lysate were assayed. Luciferase activity was measured using Dual-Luciferase reporter assay system from Promega Corporation following the manufacturer's instructions. Fold induction (FI) activities were calculated by dividing relative light units (“RLU”) in ligand treated cells with RLU in DMSO treated cells (untreated control).

[2] = biological target: CfEcR-DEF mutant A110P (Choristoneura fumiferana, UniProt O77255, A393P); experiment: cell-based
Sequence of CfEcR-DEF mutant A110P (O77255 entry or part of it A393P): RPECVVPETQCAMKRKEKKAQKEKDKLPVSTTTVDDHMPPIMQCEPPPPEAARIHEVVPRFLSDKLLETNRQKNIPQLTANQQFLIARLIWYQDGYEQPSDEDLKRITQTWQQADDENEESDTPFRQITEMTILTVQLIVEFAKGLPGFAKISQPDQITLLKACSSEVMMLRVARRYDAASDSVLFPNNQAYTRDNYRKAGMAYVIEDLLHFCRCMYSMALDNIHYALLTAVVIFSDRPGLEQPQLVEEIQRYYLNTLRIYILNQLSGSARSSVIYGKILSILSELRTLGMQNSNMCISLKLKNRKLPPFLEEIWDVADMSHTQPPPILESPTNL
Sequence of CfEcR-DEF mutant A110P (P28702 299-449, stated change not applied, further chain): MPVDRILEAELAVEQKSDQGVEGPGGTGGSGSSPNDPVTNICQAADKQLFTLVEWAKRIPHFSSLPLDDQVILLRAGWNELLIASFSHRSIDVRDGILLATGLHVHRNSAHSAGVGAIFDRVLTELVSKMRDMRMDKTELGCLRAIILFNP
Procedure, shortened: (§4)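 Mutant CfEcR-DEF receptor and GAL4-driven luciferase reporter constructs transfected into mouse NIH3T3 cells with DMSO or ligand added; maintained 48 h at 37° C in 5% FBS, harvested 40 h after ligand addition. Dual-luciferase read-out; fold induction = RLU with ligand / RLU with DMSO.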

[3] = biological target: CfEcR-DEF mutant F109L (Choristoneura fumiferana, UniProt O77255, F392L); experiment: cell-based
Sequence of CfEcR-DEF mutant F109L (P28702 299-449): as the sequence (P28702 299-449, stated change not applied, further chain) above
Sequence of CfEcR-DEF mutant F109L (O77255 entry or part of it F392L): as the sequence (O77255 entry or part of it A393P) above, with F186L, P187A counted along it
Procedure, shortened: as §4

[4] = biological target: CfEcR-DEF mutant L234I (Choristoneura fumiferana, UniProt O77255, L517I); experiment: cell-based
Sequence of CfEcR-DEF mutant L234I (P28702 299-449): as the sequence (P28702 299-449, stated change not applied, further chain) above
Sequence of CfEcR-DEF mutant L234I (O77255 entry or part of it L517I): as the sequence (O77255 entry or part of it A393P) above, with P187A, L311I counted along it
Procedure, shortened: as §4

[5] = biological target: CfEcR-DEF mutant M125E (Choristoneura fumiferana, UniProt O77255, M408E); experiment: cell-based
Sequence of CfEcR-DEF mutant M125E (O77255 entry or part of it M408E): as the sequence (O77255 entry or part of it A393P) above, with P187A, M202E counted along it
Sequence of CfEcR-DEF mutant M125E (P28702 299-449, further chain): as the sequence (P28702 299-449, stated change not applied, further chain) above
Procedure, shortened: as §4

[6] = biological target: CfEcR-DEF mutant N119F/V96T (Choristoneura fumiferana, UniProt O77255, N402F/V379T); experiment: cell-based
Sequence of CfEcR-DEF mutant N119F/V96T (O77255 entry or part of it V379T/N402F): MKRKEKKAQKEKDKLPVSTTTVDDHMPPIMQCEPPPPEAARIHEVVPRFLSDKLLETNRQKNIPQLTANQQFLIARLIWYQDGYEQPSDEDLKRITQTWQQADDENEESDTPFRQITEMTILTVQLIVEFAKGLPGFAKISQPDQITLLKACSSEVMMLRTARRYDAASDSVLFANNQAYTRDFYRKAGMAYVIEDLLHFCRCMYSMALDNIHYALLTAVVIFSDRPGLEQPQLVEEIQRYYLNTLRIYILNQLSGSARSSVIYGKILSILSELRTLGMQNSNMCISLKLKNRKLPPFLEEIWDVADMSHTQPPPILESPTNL
Sequence of CfEcR-DEF mutant N119F/V96T (P28702 299-449, further chain): as the sequence (P28702 299-449, stated change not applied, further chain) above
Procedure, shortened: as §4

[7] = biological target: CfEcR-DEF mutant T52E (Choristoneura fumiferana, UniProt O77255, T335E); experiment: cell-based
Sequence of CfEcR-DEF mutant T52E (O77255 entry or part of it T335E): as the sequence (O77255 entry or part of it V379T/N402F) above, with T117E, T161V, F184N counted along it
Sequence of CfEcR-DEF mutant T52E (P28702 299-449, further chain): as the sequence (P28702 299-449, stated change not applied, further chain) above
Procedure, shortened: as §4

[8] = biological target: CfEcR-DEF mutant W238Y (Choristoneura fumiferana, UniProt O77255, W521Y); experiment: cell-based
Sequence of CfEcR-DEF mutant W238Y (P28702 299-449): as the sequence (P28702 299-449, stated change not applied, further chain) above
Sequence of CfEcR-DEF mutant W238Y (O77255 entry or part of it W521Y): as the sequence (O77255 entry or part of it V379T/N402F) above, with T161V, F184N, W303Y counted along it
Procedure, shortened: as §4

[9] = biological target: CfEcR-DEF mutant F48N (Choristoneura fumiferana, UniProt O77255, F331N); experiment: GAL4-driven luciferase reporter assay in NIH3T3 cells; format: cell-based
Sequence of CfEcR-DEF mutant F48N (O77255 entry or part of it F331N): as the sequence (O77255 entry or part of it A393P) above, with F125N, P187A counted along it
Sequence of CfEcR-DEF mutant F48N (P28702 299-449, further chain): as the sequence (P28702 299-449, stated change not applied, further chain) above
Protocol: as §1, §2, §3

[10] = biological target: CfEcR-DEF mutant M125W (Choristoneura fumiferana, UniProt O77255, M408W); experiment: as above; format: cell-based
Sequence of CfEcR-DEF mutant M125W (O77255 entry or part of it M408W): as the sequence (O77255 entry or part of it A393P) above, with P187A, M202W counted along it
Sequence of CfEcR-DEF mutant M125W (P28702 299-449, further chain): as the sequence (P28702 299-449, stated change not applied, further chain) above
Protocol: as §1, §2, §3

[11] = biological target: CfEcR-DEF mutant T52V/A110P (Choristoneura fumiferana, UniProt O77255, A393P/T335V); experiment: as above; format: cell-based
Sequence of CfEcR-DEF mutant T52V/A110P (O77255 entry or part of it T335V/A393P): as the sequence (O77255 entry or part of it V379T/N402F) above, with T117V, T161V, A175P, F184N counted along it
Sequence of CfEcR-DEF mutant T52V/A110P (P28702 299-449, stated change not applied, further chain): as the sequence (P28702 299-449, stated change not applied, further chain) above
Protocol: as §1, §2, §3

[12] = biological target: CfEcR-DEF mutant V107I/Y127E/T52V (Choristoneura fumiferana, UniProt O77255, T335V/V390I/Y410E); experiment: as above; format: cell-based
Sequence of CfEcR-DEF mutant V107I/Y127E/T52V (P28702 299-449): as the sequence (P28702 299-449, stated change not applied, further chain) above
Sequence of CfEcR-DEF mutant V107I/Y127E/T52V (O77255 entry or part of it T335V/V390I/Y410E): as the sequence (O77255 entry or part of it V379T/N402F) above, with T117V, T161V, V172I, F184N, Y192E counted along it
Protocol: as §1, §2, §3

[13] = NIH3T3, 40 h, read-out: Rel Max FI

Compound: CC(C)CC[C@@H](O)[C@](C)(O)[C@H]1CC[C@@]2(O)C3=CC(=O)[C@@H]4C[C@@H](O)[C@@H](O)C[C@]4(C)[C@H]3CC[C@]12C [PonA, ponasterone A]
- Fold increase over WT ([1]; 1.6 nM ligand): 1.33
- Fold increase over WT ([1]; 8 nM ligand): 1.7
- Fold increase over WT ([1]; 40 nM ligand): 9.42
- Fold increase over WT ([1]; 200 nM ligand): 6.50
- Fold increase over WT ([1]; 1 μM ligand): 3.00
- pEC50 ([2]; mutant A110P, read-out: EC50): < 4.48
- Rel Max FI ([2]; mutant A110P, relative to max fold induction of GS-E ligand): 0
- Rel Max FI ([3]; mutant F109L): 0.03
- pEC50 ([3]; mutant F109L, read-out: EC50): < 4.48
- Rel Max FI ([4]; mutant L234I): 0.56
- pEC50 ([4]; mutant L234I, read-out: EC50): ~5.15
- Rel Max FI ([5]; mutant M125E): 0
- pEC50 ([5]; mutant M125E, read-out: EC50): < 4.48
- pEC50 ([6]; mutant N119F/V96T, read-out: EC50): ~6.52
- Rel Max FI ([6]; mutant N119F/V96T, relative to max fold induction of GS-E ligand): 2.02
- Rel Max FI ([7]; mutant T52E): 0
- pEC50 ([7]; mutant T52E, read-out: EC50): < 4.48
- Rel Max FI ([8]; mutant W238Y): 0.07
- pEC50 ([8]; mutant W238Y, read-out: EC50): < 4.48
- Rel Max FI ([9]; mutant F48N): 0.17
- pEC50 ([9]; mutant F48N, read-out: EC50): ~4.70
- Rel Max FI ([10]; mutant M125W): 0
- pEC50 ([10]; mutant M125W, read-out: EC50): < 4.48
- pEC50 ([11]; mutant T52V/A110P, read-out: EC50): < 4.48
- Rel Max FI ([11]; mutant T52V/A110P, relative to max fold induction of GS-E ligand): 0
- pEC50 ([12]; mutant V107I/Y127E/T52V, read-out: EC50): ~6.00
- Rel Max FI ([12]; mutant V107I/Y127E/T52V, relative to max fold induction of GS-E ligand): 0.67

Compound: Cc1cc(C)cc(C(=O)N(NC(=O)c2cccc(C(C)C)c2C)C(C)(C)C)c1 [RG-102362, 3,5-Dimethyl-benzoic acid N-tert-butyl-N′-(3-isopropyl-2-methyl-benzoyl)-hydrazide]
- pEC50 [2]: 6.11
- Emax [2, 13]: 64%
- pEC50 [3]: ~5.60
- Emax [3, 13]: 17%
- pEC50 [4]: 5.61
- Emax [4, 13]: 44%
- pEC50 [5]: 6.08
- Emax [5, 13]: 40%
- pEC50 [6]: ~5.00
- Emax [6, 13]: 19%
- pEC50 [7]: 5.15
- Emax [7, 13]: 34%
- pEC50 [8]: < 4.48
- Emax [8, 13]: 6%
- pEC50 [9]: 5.77
- Emax [9, 13]: 66%
- pEC50 [10]: 5.46
- Emax [10, 13]: 44%
- pEC50 [11]: 6.49
- Emax [11, 13]: 94%
- pEC50 [12]: > 8.00
- Emax [12, 13]: 73%
- melting point: 182.5 °C
